Values joined by “and” are separate entries in the source; they are usually repeats but may differ in a detail not shown here. Equal values may be shown once. Where a name gives a salt, the structure may show the parent alone.
What was measured:
[1] = test system: urinary incontinence after spaying; assay: GnRH analogue slow release implant in bitches with urinary incontinence after spaying; assay type: in vivo, dog; settings: slow release s.c. implant
Procedure: Additionally, for a limited period the dogs were treated with phenylpropanolamine in a dosage of 1.5 mg/kg BW tid orally.
After discontinuation of the shortacting phenylpropanolamine 8 bitches remained continent. Their continence was therefore achieved solely by the treatment with the composition as described in the present invention. Seven out of fifteen dogs seemed to be much happier and in none of the dogs did the general condition deteriorate. […] The respective results are shown in more detail in table 1.

[2] = test system: urge incontinence and hotflushes; assay: Perimenopausal person with urge incontinence and hot flushes; assay type: in vivo, human; settings: 3.75 mg; one perimenopausal person
[3] = test system: urinary incontinence of the bitch; settings: 1.5 mg/kg BW p.o., given every 8 hours; cited from earlier work
[4] = test system: excessive growth of the undercoat (baby coat) due to spaying; assay: Excessive growth of the undercoat due to spaying in cocker spaniel bitches; assay type: in vivo, dog; settings: 5 mg slow release s.c. implant
Procedure: Two cocker spaniel bitches belonging to the same owner were showing excessive growth of the undercoat due to spaying. […] Both dogs were first clinically examined and thereafter a GnRH analogue (Deslorelin) in a dosage of 5 mg, in slow release form, was subcutaneously implanted between the shoulder blades.

stress incontinence = assay: Menopausal person with stress incontinence, 24 hour pad test; assay type: in vivo, human; settings: single dose of 3.75 mg, one person
Procedure: A second menopausal person, suffering from stress incontinence for at least 6 years, was treated with a single dose of 3.75 mg of leuprolide acetate. 24 hour pad tests conducted prior to treatment with the drug indicated they lost between 10 and 130 ml of urine on a daily basis due to their incontinence.

urinary incontinence = assay: Double-blind, placebo-control study in client owned dogs suffering from urinary incontinence; assay type: in vivo, dog
Procedure: In a second ongoing study, 16 client owned dogs suffering from urinary incontinence were enrolled in a double-blind, placebo-control study. In the initial phase of the study, dogs were randomly assigned to treatment with a long-acting GnRH analogue (leuprolide acetate) or placebo (dog owners and the investigators were blinded to treatment) along with a short course of therapy with phenylpropanolamine. 5 weeks after treatment with drug or placebo, dogs were evaluated and, if not fully continent, treated with a long-acting GnRH analogue (leuprolide acetate) in an open label phase of the study. To date only 1 of 10 dogs treated with placebo became continent vs. […] treated with drug during the blinded portion of the study. Overall, the results generated thus far indicate […] dogs treated with the long-acting GnRH analogue became continent and […] improved after discontinuation of the short acting phenylpropanolamine. Only 1 dog of 15 treated with the GnRH analogue was considered not to have improved following treatment with the drug.

[5] = 6 mg, without PPA, one dog per line
[6] = 12 mg, with PPA, one dog per line
[7] = 12 mg, without PPA, one dog per line
[8] = 11,25 mg, without PPA, one dog per line, listed as Leuprorelin acetate
[9] = 6,3 mg, without PPA, one dog per line

In the case of “Triptorelin acetate [Triptorelinacetate]”, the “Duration of effect after treatment” value ([1]; 3,75 mg, footnote: dose too low, one dog) was 0, the “Period of improvement of both symptoms” value [2] was “about 4 weeks” and the “Urge incontinence and hotflushes, patient report” value [2] was “improved considerably”.

For `CN[C@@H](C)[C@H](O)c1ccccc1` [ephedrinhydrochloride], the Continence achieved [3] is listed as 74%.

In the case of Deslorelin acetate [Deslorelinacetate], the Side effects ([1]; 6 mg, one dog per line) was “More playfull”, the “Duration of effect after treatment” value ([1]; 6 mg, with PPA, one dog) was over 336 days and the Effect on incontinence ([1]; 6 mg, with PPA, one dog per line) was 100%. For the same compound, the “Duration of effect after treatment” value [1, 5] was >47 days and >344 days and >340 days, the Effect on incontinence [1, 5] was 100% and the “Duration of effect after treatment” value [1, 6] was 135 days and >318 days and >225 days. For the same compound, the Effect on incontinence [1, 6] was 80% and 100% (2×), the “Duration of effect after treatment” value [1, 7] was 64 days and >64 days and >209 days and the Effect on incontinence [1, 7] was 100%.

For `CC(N)C(O)c1ccccc1` (centres unmarked) [phenylpropanolamine], the Continence achieved [3] is given as 74%.

For `CCNC(=O)[C@@H]1CCCN1C(=O)[C@H](CCCN=C(N)N)NC(=O)[C@H](CC(C)C)NC(=O)[C@@H](Cc1c[nH]c2ccccc12)NC(=O)[C@H](Cc1ccc(O)cc1)NC(=O)[C@H](CO)NC(=O)[C@H](Cc1c[nH]c2ccccc12)NC(=O)[C@H](Cc1cnc[nH]1)NC(=O)[C@@H]1CCC(=O)N1` [Deslorelin], the Coat quality ([4]; 5 weeks after the injection, both of two dogs) was “obvious amelioration of the coat quality” and the “Signs of baby coat” value ([4]; 21 weeks after injection, two dogs) was “no signes of “baby coat” were apparent anymore”.

In the case of `CCNC(=O)[C@@H]1CCCN1C(=O)[C@H](CCCNC(=N)N)NC(=O)[C@H](CC(C)C)NC(=O)[C@@H](CC(C)C)NC(=O)[C@H](Cc1ccc(O)cc1)NC(=O)[C@H](CO)NC(=O)[C@H](Cc1c[nH]c2ccccc12)NC(=O)[C@H](Cc1c[nH]cn1)NC(=O)[C@@H]1CCC(=O)N1` [Leuprorelinacetate, leuprolide acetate], the “Daily urine loss, pad test” value (stress incontinence; 2 weeks after treatment, before treatment 10 to 130 ml daily) was 1 mL, the “Patient's judgement of the effects of the therapy” value (stress incontinence) was “very satisfied” and the “Dogs that became continent during the blinded portion of the study” value (urinary incontinence; long-acting, with short course of phenylpropanolamine, evaluated 5 weeks after treatment, placebo 1 of 10) was 3 to 8 dogs. For the same compound, the “Dogs considered not to have improved following treatment” value (urinary incontinence; of 15 treated) was 1 dog, the “Dogs that became continent after discontinuation of phenylpropanolamine (overall)” value (urinary incontinence; of 15 treated, blinded and open label phases, ongoing study) was 6 dogs and the “Remaining dogs that improved after discontinuation of phenylpropanolamine” value (urinary incontinence; of 15 treated, ongoing study) was 9 dogs. The “Duration of effect after treatment” value ([1]; 11,25 mg, with PPA, one dog) was over 64 days, the Effect on incontinence ([1]; 11,25 mg, with PPA, one dog) was 100% and the “Duration of effect after treatment” value ([1]; 11,25 mg, without PPA, one dog per line) was 0 days. For the same compound, the “Duration of effect after treatment” value [1, 8] was over 14 days and the Effect on incontinence [1, 8] was 100%.

With Buserelin acetate [Buserelinacetate] the “Duration of effect after treatment” value [1, 9] was 44 days and 83 days and the Effect on incontinence [1, 9] was 100%.

From patent US7498303B2, “GNRH analogues for treatment of urinary incontinence” (priority 2000, dated 2009)
